Laboratory results reported in ChEMBL document CHEMBL2074410, “Chelerythrine stimulates GSH transport by rat Mrp2 (Abcc2) expressed in canine kidney cells” (Am J Physiol Gastrointest Liver Physiol, 2003).

Molecular target: ATP-binding cassette sub-family C member 2 (Rattus norvegicus, UniProt Q63120)
Assay: TP_TRANSPORTER: transcellular transport in MDCKII(+GSH)
Format: functional, cell-based
Details: dog, mdck-ii

Sequence of ATP-binding cassette sub-family C member 2 (Q63120 whole entry): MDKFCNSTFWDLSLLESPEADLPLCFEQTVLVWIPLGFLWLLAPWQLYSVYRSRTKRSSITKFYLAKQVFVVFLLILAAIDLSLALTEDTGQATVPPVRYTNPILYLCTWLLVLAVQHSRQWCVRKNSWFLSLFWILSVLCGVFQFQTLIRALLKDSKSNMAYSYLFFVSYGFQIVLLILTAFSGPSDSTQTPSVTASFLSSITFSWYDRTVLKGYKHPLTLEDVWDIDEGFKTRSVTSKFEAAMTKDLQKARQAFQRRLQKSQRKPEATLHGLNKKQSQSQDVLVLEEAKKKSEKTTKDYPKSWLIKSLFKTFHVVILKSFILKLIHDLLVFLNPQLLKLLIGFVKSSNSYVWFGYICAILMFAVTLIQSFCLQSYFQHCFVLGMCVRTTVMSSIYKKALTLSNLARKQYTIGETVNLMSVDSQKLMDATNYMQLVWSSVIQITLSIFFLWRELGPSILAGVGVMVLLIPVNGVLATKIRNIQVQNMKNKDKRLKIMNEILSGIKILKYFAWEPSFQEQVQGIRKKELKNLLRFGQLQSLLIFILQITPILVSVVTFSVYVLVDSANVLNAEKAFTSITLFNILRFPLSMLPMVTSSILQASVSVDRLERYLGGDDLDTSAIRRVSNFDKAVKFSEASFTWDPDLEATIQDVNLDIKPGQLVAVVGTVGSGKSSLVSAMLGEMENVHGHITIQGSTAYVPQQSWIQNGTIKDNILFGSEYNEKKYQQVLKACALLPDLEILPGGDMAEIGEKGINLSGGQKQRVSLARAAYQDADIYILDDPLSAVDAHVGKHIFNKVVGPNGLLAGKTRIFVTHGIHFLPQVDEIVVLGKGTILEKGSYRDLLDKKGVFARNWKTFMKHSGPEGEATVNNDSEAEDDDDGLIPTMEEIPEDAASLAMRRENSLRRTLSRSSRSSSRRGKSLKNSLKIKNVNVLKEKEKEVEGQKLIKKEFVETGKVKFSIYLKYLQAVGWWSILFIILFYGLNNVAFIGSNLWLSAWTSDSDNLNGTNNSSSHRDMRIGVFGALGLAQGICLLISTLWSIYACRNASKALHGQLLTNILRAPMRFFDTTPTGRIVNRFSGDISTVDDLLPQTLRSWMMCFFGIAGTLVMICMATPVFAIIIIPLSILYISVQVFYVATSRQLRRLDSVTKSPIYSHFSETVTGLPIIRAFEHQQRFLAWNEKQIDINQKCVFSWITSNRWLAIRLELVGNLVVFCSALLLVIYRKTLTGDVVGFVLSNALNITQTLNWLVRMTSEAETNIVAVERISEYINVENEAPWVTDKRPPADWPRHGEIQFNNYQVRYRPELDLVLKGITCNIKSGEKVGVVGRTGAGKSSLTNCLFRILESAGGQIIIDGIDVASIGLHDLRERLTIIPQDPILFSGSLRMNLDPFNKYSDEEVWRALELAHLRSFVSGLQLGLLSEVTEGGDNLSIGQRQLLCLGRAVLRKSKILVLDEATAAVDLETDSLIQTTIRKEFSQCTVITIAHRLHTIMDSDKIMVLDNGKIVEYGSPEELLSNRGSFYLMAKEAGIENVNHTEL

For COc1ccc2c(c[n+](C)c3c4cc5c(cc4ccc23)OCO5)c1OC [CHELERYTHRINE], the Activity was “substrate []”.
